Measurements from ChEMBL document CHEMBL1156202, “The effect of the pyridyl nitrogen position in pyridylpiperazine sigma ligands” (Bioorg Med Chem Lett, 2010).

Assays:
[1] = target: Sigma non-opioid intracellular receptor 1 (Rattus norvegicus, UniProt Q9R0C9); assay: Displacement of [3H](+)-pentazocine from rat brain membrane sigma 1receptor after 120 mins
[2] = species on record: Rattus norvegicus; assay: Selectivity ratio of Ki for rat brain membrane sigma 1receptor to Ki for rat brain membrane sigma 2 receptor
[3] = Displacement of [3H]di-O-tolylguanidine from rat brain membrane sigma 2 receptor after 120 mins in the presence of (+)-pentazocin

Sigma non-opioid intracellular receptor 1, sequence (Q9R0C9 whole entry): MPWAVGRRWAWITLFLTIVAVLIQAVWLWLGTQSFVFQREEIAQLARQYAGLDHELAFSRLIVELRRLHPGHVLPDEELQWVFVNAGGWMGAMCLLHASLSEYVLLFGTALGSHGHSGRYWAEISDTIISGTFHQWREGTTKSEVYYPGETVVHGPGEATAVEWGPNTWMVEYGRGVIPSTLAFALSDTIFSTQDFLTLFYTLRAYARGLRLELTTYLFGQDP

SMILES	Ki [1]	Ratio Ki [2]	Ki [3]
c1ccc(CCN2CCN(c3ccncc3)CC2)cc1	41.8 nM	0.6	69.7 nM
c1ccc(CCN2CCN(c3ccccn3)CC2)cc1	–	2.7	119 nM
c1ccc(CCCN2CCN(c3cccnc3)CC2)cc1	21.2 nM	0.19	110 nM
c1ccc(CCCN2CCN(c3ccccn3)CC2)cc1	–	16.9	4.91 nM
c1ccc(CCN2CCN(c3cccnc3)CC2)cc1	97.2 nM	0.22	440 nM
c1ccc(CCCN2CCN(c3ccncc3)CC2)cc1	34.2 nM	0.41	84 nM
